# Active and inactive are the calls of the source.
# Tests used:
# Bcl-2-like protein 10 = molecular target: T1, Bcl-2-like protein 10 (Homo sapiens, UniProt Q9HD36); assay: Biochemical TR3 FP assay of Bcl-B inhibitor potency, EC50 (AID 1243); format: functional
# T1 sequence (Q9HD36 whole entry): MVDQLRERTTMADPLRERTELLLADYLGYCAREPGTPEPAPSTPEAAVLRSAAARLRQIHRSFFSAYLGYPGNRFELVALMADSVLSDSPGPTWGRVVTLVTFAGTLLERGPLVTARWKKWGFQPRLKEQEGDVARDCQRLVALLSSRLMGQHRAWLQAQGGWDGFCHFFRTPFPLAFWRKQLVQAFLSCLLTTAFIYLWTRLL
# [1] = molecular target: T2, Zinc finger protein mex-5 (Caenorhabditis elegans, UniProt Q9XUB2); assay: MEX-5/TCR-2 RNA interaction inhibitors, dose response, biochemical, C. elegans, fluorescence polarization (AID 1960)
# T2 sequence (Q9XUB2 whole entry): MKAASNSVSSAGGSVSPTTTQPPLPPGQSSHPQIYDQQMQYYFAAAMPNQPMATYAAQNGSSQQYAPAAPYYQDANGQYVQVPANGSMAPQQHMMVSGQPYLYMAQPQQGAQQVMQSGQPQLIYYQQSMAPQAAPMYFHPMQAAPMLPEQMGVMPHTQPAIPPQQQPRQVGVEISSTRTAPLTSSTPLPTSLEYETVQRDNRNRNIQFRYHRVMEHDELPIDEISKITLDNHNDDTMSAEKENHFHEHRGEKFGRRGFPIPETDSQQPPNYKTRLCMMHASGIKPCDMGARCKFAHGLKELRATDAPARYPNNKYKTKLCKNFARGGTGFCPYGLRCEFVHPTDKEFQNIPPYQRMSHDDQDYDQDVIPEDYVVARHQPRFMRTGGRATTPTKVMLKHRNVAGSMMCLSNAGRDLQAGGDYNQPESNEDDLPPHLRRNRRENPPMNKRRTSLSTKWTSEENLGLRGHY
# [2] = molecular target: T3, RNA-binding protein pos-1 (Caenorhabditis elegans, UniProt G5EF15); assay: inhibitors of POS-1/mex-3 RNA binding, dose response, biochemical, fluorescence polarization (AID 1964);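 further: purified POS-1 fused to maltose binding protein made in E. coli; potency of compounds blocking POS-1 binding to fluorescent RNA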
# T3 sequence (G5EF15 whole entry): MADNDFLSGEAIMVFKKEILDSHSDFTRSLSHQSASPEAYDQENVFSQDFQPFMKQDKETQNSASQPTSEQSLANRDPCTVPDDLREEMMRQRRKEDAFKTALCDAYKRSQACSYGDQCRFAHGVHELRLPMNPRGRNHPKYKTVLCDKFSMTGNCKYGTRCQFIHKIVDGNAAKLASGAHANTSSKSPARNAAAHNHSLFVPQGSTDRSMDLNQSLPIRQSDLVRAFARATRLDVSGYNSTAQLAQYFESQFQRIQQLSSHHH
# Insulin-degrading enzyme = molecular target: T4, Insulin-degrading enzyme (Homo sapiens, UniProt P14735); assay: Dose Response: Fluorescence polarization-based cell-based high throughput dose response assay for inhibitors of insulin-degrading enzyme (IDE). [Related pubchem assays: 434962 (Primary screen (IDE inhibitors in singlicate)), 449730 (Counterscreen (Cytotoxicity in triplicate)), 435028 (Confirmation (IDE inhibitors in triplicate)), 434984 (Summary …; format: functional
# T4 sequence (P14735 whole entry): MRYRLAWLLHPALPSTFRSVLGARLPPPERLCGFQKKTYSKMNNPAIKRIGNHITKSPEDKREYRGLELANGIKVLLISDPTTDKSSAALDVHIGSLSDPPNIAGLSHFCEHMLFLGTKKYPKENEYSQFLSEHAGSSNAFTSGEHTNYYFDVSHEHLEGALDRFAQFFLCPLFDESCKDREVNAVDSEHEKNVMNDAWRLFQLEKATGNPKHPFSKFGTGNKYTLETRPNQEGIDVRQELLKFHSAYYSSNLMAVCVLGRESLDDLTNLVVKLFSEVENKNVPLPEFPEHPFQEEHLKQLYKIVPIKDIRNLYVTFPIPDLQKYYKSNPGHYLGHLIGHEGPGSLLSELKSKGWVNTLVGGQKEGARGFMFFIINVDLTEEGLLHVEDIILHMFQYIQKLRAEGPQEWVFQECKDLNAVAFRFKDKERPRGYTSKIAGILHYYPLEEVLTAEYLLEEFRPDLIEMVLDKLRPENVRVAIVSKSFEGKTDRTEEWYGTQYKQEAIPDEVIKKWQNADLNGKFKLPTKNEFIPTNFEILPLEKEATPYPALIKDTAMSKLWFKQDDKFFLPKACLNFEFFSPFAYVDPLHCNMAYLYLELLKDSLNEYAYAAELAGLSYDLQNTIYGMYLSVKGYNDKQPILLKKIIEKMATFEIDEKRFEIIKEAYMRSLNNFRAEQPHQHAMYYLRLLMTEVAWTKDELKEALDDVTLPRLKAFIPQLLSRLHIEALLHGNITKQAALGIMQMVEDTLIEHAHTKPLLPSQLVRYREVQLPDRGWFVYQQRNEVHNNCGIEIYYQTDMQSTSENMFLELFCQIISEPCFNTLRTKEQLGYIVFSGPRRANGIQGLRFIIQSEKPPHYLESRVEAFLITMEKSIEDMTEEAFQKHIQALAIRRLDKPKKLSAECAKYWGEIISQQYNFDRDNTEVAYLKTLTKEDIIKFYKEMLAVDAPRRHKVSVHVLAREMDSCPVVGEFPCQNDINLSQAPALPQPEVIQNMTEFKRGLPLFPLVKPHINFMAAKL
# [3] = Counterscreen for IDE inhibitors: Luminescence-based cell-based high throughput dose response assay to identify compounds that are cytotoxic to HEK cells. [Related pubchem assays: 434962 (Primary screen (IDE inhibitors in singlicate)), 449730 (Counterscreen (Cytotoxicity in triplicate)), 435028 (Confirmation (IDE inhibitors in triplicate)) …; format: functional; conditions: HEK293
# NS3 = NS3 (Hepatitis C virus, UniProt A3EZJ3); assay: PubChem AID 2173; design: species or system Hepacivirus hominis
# [4] = molecular target: Peroxisome proliferator-activated receptor gamma/Nuclear receptor coactivator 3 (Homo sapiens, UniProt P37231); format: functional;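 further: agonist potency for raising coactivator recruitment to the receptor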
# Sequence of Peroxisome proliferator-activated receptor gamma/Nuclear receptor coactivator 3 (P37231 whole entry): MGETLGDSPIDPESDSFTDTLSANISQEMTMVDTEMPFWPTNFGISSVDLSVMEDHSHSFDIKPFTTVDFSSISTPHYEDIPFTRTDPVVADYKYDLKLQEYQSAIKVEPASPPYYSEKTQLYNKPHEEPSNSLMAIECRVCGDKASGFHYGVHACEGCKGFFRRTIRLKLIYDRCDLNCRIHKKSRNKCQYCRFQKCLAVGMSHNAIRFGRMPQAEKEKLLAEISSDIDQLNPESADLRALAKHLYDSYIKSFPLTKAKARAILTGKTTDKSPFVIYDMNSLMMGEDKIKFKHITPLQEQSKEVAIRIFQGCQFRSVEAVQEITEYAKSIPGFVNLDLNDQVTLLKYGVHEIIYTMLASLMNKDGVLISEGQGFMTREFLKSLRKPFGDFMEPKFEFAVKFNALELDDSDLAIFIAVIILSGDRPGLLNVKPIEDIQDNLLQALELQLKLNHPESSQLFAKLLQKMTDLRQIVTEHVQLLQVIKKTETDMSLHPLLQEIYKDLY
# Sequence of Peroxisome proliferator-activated receptor gamma/Nuclear receptor coactivator 3 (Q9Y6Q9 whole entry, further chain): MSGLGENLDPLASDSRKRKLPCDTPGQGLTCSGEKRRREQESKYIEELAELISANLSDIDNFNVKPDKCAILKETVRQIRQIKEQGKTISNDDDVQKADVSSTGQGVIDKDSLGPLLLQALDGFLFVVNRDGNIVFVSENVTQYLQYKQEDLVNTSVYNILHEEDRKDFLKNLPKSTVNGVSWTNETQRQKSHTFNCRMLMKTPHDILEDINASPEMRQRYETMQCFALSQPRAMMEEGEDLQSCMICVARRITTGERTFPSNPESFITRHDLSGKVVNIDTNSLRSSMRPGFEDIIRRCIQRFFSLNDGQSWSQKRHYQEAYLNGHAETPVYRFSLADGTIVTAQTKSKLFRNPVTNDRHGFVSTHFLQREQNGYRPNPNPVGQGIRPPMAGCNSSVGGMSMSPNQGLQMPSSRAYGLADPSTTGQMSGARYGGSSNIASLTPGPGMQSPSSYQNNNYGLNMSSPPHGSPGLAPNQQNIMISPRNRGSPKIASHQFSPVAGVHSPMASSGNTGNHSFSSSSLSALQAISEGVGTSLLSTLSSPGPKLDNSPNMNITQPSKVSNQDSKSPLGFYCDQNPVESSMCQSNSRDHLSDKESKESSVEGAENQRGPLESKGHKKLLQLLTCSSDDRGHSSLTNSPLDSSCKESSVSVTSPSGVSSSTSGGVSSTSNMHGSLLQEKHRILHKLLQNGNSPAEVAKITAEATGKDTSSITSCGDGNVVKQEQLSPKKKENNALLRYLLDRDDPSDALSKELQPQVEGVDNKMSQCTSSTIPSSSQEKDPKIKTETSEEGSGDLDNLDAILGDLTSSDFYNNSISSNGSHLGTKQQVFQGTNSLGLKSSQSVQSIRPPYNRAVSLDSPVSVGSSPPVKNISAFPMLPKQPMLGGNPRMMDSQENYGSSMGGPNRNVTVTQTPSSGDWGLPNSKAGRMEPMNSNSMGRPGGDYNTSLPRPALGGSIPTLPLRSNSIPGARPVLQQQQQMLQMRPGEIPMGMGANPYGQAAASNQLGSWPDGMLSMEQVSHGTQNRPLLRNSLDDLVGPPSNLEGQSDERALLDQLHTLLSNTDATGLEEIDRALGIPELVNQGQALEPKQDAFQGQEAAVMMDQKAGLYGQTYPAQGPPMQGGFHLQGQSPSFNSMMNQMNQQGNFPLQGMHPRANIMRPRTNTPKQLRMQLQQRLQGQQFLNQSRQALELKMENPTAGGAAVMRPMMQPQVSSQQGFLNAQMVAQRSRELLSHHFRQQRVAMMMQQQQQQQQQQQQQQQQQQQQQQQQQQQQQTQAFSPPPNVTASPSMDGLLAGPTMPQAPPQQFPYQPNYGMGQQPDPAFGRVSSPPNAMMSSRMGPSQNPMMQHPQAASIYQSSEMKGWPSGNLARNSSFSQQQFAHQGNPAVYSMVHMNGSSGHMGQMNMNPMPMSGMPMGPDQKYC
# [5] = molecular target: Peroxisome proliferator-activated receptor gamma/Nuclear receptor coactivator 2 (Homo sapiens, UniProt P37231); format: functional;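 further: agonist potency for raising coactivator recruitment to the receptor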
# [6] = molecular target: Peroxisome proliferator-activated receptor gamma/Nuclear receptor coactivator 1 (Homo sapiens, UniProt P37231); format: functional;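 further: agonist potency as compounds enhance coactivator SRC-1 recruitment to PPARgamma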
# Sequence of Peroxisome proliferator-activated receptor gamma/Nuclear receptor coactivator 1 (P37231 whole entry): as the sequence (P37231 whole entry) above
# Sequence of Peroxisome proliferator-activated receptor gamma/Nuclear receptor coactivator 1 (Q15788 whole entry, further chain): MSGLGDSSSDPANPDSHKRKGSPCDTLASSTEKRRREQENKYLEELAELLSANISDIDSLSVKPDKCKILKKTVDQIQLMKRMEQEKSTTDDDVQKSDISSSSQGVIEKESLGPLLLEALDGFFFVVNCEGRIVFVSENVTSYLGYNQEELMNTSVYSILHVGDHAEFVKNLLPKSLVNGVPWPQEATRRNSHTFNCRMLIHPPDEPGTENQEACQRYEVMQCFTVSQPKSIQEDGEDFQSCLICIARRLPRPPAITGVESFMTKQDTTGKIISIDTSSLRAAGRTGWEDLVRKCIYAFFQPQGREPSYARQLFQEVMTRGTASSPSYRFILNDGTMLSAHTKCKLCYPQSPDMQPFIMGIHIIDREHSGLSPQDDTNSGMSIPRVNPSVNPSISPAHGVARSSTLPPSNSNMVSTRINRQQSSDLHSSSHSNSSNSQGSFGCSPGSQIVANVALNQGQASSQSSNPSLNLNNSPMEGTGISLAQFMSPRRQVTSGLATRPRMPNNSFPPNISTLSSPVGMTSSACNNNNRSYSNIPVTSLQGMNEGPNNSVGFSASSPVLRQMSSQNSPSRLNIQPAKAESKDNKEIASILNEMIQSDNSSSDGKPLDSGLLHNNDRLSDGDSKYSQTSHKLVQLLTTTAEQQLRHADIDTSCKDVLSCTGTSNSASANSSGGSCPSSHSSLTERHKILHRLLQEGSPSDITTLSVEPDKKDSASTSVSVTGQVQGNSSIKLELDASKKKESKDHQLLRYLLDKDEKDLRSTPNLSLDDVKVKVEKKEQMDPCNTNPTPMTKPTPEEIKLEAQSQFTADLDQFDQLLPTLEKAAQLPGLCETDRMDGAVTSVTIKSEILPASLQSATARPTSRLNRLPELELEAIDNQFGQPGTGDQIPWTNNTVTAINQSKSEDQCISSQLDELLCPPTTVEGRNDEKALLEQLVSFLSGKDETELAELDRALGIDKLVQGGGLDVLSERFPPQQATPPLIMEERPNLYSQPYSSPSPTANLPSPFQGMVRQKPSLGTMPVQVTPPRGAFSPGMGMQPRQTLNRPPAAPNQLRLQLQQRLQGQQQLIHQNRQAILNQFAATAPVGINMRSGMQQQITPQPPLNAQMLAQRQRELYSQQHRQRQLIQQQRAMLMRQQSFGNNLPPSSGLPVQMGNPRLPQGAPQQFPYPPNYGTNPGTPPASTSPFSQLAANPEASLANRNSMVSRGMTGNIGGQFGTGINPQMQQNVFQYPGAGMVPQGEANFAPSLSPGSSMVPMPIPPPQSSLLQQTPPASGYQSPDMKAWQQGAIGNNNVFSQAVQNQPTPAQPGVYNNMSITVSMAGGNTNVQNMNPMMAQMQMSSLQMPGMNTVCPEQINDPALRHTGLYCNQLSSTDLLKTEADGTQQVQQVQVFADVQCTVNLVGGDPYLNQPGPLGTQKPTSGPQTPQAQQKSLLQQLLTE
# Beta-galactosidase = Beta-galactosidase (Escherichia coli, UniProt Q8VNN2); assay: beta-galactosidase enzyme inhibitors and activators, dose response, artefact control for CCR6 antagonist project, biochemical, E. coli enzyme, set 3 (AID 504712); format: functional
# [7] = molecular target: C-C chemokine receptor type 6 (Homo sapiens, UniProt P51684); assay: CCR6 receptor antagonists, dose response, cell-based, luminescent beta-arrestin readout (AID 504728); format: functional
# Sequence of C-C chemokine receptor type 6 (P51684 whole entry): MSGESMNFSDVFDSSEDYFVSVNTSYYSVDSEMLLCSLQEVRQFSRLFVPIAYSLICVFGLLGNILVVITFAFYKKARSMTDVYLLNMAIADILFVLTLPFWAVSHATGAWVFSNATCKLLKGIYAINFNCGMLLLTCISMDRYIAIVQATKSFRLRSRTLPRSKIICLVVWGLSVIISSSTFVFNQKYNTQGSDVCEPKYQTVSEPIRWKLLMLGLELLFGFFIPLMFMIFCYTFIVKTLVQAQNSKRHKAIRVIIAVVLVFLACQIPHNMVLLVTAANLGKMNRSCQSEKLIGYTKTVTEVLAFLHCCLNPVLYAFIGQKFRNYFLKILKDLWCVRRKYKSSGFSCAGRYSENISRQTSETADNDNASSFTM
# [8] = molecular target: T5, Alkaline phosphatase, tissue-nonspecific isozyme (Homo sapiens, UniProt P05186)
# T5 sequence (P05186 whole entry): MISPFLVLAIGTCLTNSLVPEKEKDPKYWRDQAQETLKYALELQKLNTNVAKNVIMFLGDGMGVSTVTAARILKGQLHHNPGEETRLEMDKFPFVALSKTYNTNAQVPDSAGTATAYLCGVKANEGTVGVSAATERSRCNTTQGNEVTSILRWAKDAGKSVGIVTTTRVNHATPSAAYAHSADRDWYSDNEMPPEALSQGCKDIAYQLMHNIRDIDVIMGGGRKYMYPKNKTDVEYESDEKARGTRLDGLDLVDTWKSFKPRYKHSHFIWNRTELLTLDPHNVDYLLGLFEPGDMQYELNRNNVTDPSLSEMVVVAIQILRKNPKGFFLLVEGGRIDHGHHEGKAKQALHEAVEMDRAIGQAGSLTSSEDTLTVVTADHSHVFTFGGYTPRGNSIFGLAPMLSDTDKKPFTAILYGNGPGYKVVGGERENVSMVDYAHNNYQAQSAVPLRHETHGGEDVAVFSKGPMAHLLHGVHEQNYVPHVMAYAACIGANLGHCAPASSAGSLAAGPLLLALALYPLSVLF
# [9] = A549 cell cytotoxicity, dose response, cytotoxicity control, plate reader, cherry-pick, antagonist series (AID 743412); format: functional, cell-based
# [10] = molecular target: Acyl-homoserine lactone acylase PvdQ (Pseudomonas aeruginosa (strain LESB58), UniProt Q9I194); assay: P. aeruginosa PvdQ acylase inhibitors, dose response, biochemical, fluorescence, plate reader and imaging, cherry-picks (AID 493231)
# Sequence of Acyl-homoserine lactone acylase PvdQ (Q9I194 24-193 limits assumed): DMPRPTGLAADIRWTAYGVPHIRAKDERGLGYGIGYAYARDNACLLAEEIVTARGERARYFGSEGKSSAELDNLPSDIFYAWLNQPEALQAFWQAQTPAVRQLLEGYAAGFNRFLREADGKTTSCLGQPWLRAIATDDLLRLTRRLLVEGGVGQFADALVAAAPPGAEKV
# Sequence of Acyl-homoserine lactone acylase PvdQ (Q9I194 217-762 limits assumed): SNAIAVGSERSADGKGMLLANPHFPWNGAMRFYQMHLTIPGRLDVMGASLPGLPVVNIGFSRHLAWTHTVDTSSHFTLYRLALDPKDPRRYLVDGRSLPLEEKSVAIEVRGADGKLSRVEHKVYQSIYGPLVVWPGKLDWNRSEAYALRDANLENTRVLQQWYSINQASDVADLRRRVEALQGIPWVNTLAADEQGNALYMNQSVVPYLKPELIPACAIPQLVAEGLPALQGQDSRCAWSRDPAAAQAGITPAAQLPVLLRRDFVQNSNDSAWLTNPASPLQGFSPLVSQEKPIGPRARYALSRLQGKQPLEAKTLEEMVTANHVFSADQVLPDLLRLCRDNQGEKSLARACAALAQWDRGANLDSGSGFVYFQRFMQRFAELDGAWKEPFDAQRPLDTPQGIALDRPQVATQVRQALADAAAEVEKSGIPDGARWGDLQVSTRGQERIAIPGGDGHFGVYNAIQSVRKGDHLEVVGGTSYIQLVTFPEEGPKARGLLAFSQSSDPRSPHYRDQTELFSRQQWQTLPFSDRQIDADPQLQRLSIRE
# [11] = HepG2 cell cytotoxicity, dose response, cytotoxicity control, plate reader, cherry-pick, antagonist series (AID 743416); format: functional, cell-based
# [12] = molecular target: T6, Microphthalmia-associated transcription factor (Homo sapiens, UniProt O75030); assay: TRPM1 promoter luciferase signal decrease, dose response, MITF inhibitor project, cell-based, SK-MEL-5, cherry-picked, set 3 (AID 493073); format: functional
# T6 sequence (O75030 whole entry): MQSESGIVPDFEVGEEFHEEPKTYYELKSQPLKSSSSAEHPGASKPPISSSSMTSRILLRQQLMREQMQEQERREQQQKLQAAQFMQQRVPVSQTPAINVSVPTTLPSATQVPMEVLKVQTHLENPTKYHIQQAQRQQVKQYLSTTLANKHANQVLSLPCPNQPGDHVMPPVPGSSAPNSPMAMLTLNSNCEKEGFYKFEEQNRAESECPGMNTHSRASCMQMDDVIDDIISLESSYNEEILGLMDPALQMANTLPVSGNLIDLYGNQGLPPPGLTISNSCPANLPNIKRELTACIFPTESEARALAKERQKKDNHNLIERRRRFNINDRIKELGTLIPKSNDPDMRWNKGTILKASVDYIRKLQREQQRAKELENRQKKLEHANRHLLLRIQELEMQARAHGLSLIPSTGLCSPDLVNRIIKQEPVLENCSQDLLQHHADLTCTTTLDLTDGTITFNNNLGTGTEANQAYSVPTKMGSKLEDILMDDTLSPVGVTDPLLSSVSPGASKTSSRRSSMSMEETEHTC
# [13] = HEK293 cell cytotoxicity, dose response, cytotoxicity control, plate reader, cherry-picked samples (AID 743446); format: functional, cell-based
# [14] = LGR2 antagonists, dose response, cell-based, HEK293, CRE-luciferase reporter, cherry pick, set 2 (AID 743343); format: functional;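 further: transfected cells were stimulated with diluted bursicon conditioned medium after compound addition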
# [15] = MC4R antagonists, dose response, counter-screen for LGR2 antagonist project, cell-based, plate reader, cherry pick (AID 743444); format: functional;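 further: transfected HEK 293 cells stimulated with alpha-MSH peptide; potency of inhibitors of the alpha-MSH evoked signal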
# [16] = Luminescence-based cell-based high throughput dose response assay to identify activators of the DAF-12 from the parasite S. stercoralis (ssDAF-12).; format: functional
# [17] = molecular target: T7, Oxysterols receptor LXR-beta (Homo sapiens, UniProt P55055); format: functional, cell-based;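 further: Cell-based luminescence dose-response assay of agonist activity at LXR, run as a confirmatory counterscreen to a daf-12 agonist screen; agonist potency from rising luciferase signal of a Gal4-LXR reporter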
# T7 sequence (P55055 whole entry): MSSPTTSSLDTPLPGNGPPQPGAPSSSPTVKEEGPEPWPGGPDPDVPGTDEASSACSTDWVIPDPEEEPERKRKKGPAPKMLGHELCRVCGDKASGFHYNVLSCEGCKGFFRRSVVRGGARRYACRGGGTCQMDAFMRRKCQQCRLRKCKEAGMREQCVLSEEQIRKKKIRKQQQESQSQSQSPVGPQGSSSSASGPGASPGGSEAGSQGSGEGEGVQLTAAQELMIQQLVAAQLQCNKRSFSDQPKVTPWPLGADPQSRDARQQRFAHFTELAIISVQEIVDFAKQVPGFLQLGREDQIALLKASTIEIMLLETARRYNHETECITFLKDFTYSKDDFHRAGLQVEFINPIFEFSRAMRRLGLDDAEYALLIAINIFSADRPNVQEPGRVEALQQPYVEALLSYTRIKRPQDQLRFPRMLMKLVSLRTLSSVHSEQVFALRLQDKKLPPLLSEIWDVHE
# [18] = molecular target: T7, Oxysterols receptor LXR-beta; assay: LXR agonists, Gal4 luciferase reporter, dose response, counter-screen for ssDAF-12 agonist project, cell-based, luminescence, HEK293, S. stercoralis campaign (AID 720737); format: functional; conditions: read-out: IC50 (the source's name)
# Cytochrome P450 2D6 = Cytochrome P450 2D6 (Homo sapiens, UniProt P10635);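 further: CYP2D6 member of a cytochrome P450 panel assay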
# Cytochrome P450 2C19 = Cytochrome P450 2C19 (Homo sapiens, UniProt P33261); assay: Cytochrome panel assay with activity outcomes. Panel member name: p450-cyp2c19 Compounds with AC50 equal or less than 10 uM are considered active; format: functional; conditions: read-out: AC50
compound,measurement,setting,value
O=C(O)c1cccc2c1NC(c1ccc([N+](=O)[O-])cc1)C1CC=CC21 (stereo not drawn),EC50,Bcl-2-like protein 10,5.41 µM (active)
O=C1C(=Cc2cn(Cc3ccc(Cl)cc3)c3ccccc23)C(=O)c2ccccc21,EC50,Bcl-2-like protein 10,14.4 µM (active)
O=C(C1=NN(c2ccccc2)C2C(=O)N(c3ccccc3Cl)C(=O)C12)c1ccccc1 (stereo not drawn),EC50,[1],> 300 µM (inconclusive)
same,EC50,[2],> 300 µM (not active)
same,IC50,Insulin-degrading enzyme,> 6.21 µM (active)
same,IC50,[3],> 55.7 µM (not active)
O=C(O)c1cccc(-n2c(/C=C/c3ccccc3)nc3ccccc3c2=O)c1,IC50,NS3,12.3 µM (not active)
COC(=O)c1sccc1NC(=O)c1ccc(Br)s1,EC50,[4],12.2 µM (not active)
same,EC50,[5],< 8.82 µM (active)
same,EC50,[6],8.67 µM (active)
N#CC(=C1C=CC(=NO)C(Cl)=C1)c1ccc(Cl)cc1,IC50,Beta-galactosidase,> 66.6 µM (inactive)
same,IC50,[7],> 66.6 µM (inactive)
COc1ccc(OCC(=O)Nc2ccc3oc(-c4ccncc4)nc3c2)cc1,EC50,[8],> 100 µM (not active)
CCOc1ccc(NC(=O)c2ccccn2)cc1,AC50,[9],43.4 µM (active)
same,AC50,[10],> 100 µM (inactive)
same,AC50,[11],> 52 µM (inactive)
same,AC50,[12],4.4 µM (active)
same,AC50,[13],> 52 µM (inactive)
same,AC50,[14],0.999 µM (active)
same,AC50,[15],1.23 µM (active)
COc1ccc(C(N)=NOC(=O)CN(C)S(=O)(=O)c2ccc(C)cc2)cc1,EC50,[4],> 79.4 µM (not active)
same,EC50,[5],> 79.4 µM (not active)
same,EC50,[6],> 79.4 µM (not active)
Oc1cccc(/C=N/Nc2cccc3cccnc23)c1,EC50,cells,> 67.5 µM (inactive)
same,IC50,[16],> 67.5 µM (inactive)
same,EC50,[8],> 100 µM (not active)
same,EC50,[17],> 67.5 µM (inactive)
same,EC50,[18],> 67.5 µM (inactive)
Cc1ccc(C(C#N)c2ccc(Cl)nn2)cc1 (stereo not drawn),AC50,[10],1.6 µM (active)
CC(=O)c1cc(NC(=O)c2ccccc2)c(=O)oc1/C=C/N(C)C,AC50,Cytochrome P450 2D6,0.178 µM (inconclusive)
same,IC50,Insulin-degrading enzyme,8.93 µM (active)
same,AC50,Cytochrome P450 2C19,39.8 µM (inconclusive)
same,IC50,[3],> 55.7 µM (not active)
